pIC50: −log10 of the molar value.
What was measured:
[1] = target: T1, human NLRP3 (Homo sapiens (Human), UniProt Q96P20); assay: Scintillation Proximity (SPA) NLRP3 Assay: displacement of 3H-MCC950; type: binding; details: for pIC50: read-out: SPA IC50
[2] = target: T1, human NLRP3; assay: Human PBMC NLRP3 Assay (LPS priming, ATP stimulation, cytokine measurement); type: cell-based
[3] = target: T1, human NLRP3; assay: Human Whole Blood (hWB) NLRP3 Assay (LPS/ATP, IL-1β); type: cell-based
[4] = human PBMC, LPS priming, ATP stimulation, read-out: PBMC IC50
[5] = human whole blood, LPS/ATP, IL-1β, read-out: hWB IC50
[6] = PBMC IC50, human PBMC, LPS priming, ATP stimulation
[7] = hWB IC50, human whole blood, LPS/ATP, IL-1β

T1 sequence (Q96P20 whole entry): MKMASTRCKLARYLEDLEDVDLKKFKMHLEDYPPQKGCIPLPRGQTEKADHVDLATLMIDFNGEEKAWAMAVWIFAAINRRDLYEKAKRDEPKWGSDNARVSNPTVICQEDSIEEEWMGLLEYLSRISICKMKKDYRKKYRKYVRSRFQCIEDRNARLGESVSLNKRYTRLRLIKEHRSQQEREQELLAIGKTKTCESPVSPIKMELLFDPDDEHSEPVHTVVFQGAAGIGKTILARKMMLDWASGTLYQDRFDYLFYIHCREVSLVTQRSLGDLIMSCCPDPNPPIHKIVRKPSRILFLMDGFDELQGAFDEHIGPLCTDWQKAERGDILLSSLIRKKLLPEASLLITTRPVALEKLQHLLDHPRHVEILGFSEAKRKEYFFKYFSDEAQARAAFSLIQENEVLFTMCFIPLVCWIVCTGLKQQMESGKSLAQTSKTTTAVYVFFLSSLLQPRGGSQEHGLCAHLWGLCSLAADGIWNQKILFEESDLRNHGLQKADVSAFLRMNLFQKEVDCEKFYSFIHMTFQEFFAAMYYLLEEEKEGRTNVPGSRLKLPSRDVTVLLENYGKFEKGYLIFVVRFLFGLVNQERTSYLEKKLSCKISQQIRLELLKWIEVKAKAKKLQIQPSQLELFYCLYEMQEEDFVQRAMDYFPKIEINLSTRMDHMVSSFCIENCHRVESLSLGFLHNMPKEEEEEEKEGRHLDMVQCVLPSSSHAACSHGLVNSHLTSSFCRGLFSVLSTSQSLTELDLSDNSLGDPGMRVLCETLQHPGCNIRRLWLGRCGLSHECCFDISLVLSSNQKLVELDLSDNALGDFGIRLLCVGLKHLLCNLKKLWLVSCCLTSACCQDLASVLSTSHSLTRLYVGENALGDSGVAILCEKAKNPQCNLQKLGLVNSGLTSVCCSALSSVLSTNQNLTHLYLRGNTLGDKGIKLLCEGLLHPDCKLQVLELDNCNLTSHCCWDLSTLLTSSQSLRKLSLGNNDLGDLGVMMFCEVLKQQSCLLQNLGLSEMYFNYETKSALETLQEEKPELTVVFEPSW

In the case of C[C@@H]1CCN(c2nnn[nH]2)C[C@@H](NC(=O)C2(c3ccc(C(F)(F)F)cc3O)CC2)C1 (single isomer, unassigned) [63B*], the pIC50 ([1]; displacement of 3H-MCC950) was > 6.00, the pIC50 [2, 4] was 7.00 to 8.00 and the pIC50 [3, 5] was > 6.00.

For C[C@@H]1CCN(c2nnn[nH]2)C[C@H](NC(=O)C2(c3ccc(OC(F)(F)F)cc3F)CC2)C1 (single isomer, unassigned) [64A*], the pIC50 ([1]; displacement of 3H-MCC950) was > 6.00, the pIC50 [2, 4] was 7.00 to 8.00 and the pIC50 [3, 5] was > 6.00.

With C[C@@H]1CCN(c2nnn[nH]2)C[C@H](NC(=O)C2(c3ccc(C(F)(F)F)c(F)c3)CC2)C1 (single isomer, unassigned) [66A*] the pIC50 ([1]; displacement of 3H-MCC950) was > 6.00, the pIC50 [2, 4] was > 8.00 and the pIC50 [3, 5] was > 6.00.

In the case of Cc1ccc(C2(C(=O)N[C@@H]3C[C@H](C)CCN(c4nnn[nH]4)C3)CC2)c(O)c1 (single isomer, unassigned) [67A*], the pIC50 ([1]; displacement of 3H-MCC950) was > 6.00, the pIC50 [2, 4] was > 8.00 and the pIC50 [3, 5] was > 6.00.

In the case of C[C@@H]1CCN(c2nnn[nH]2)C[C@H](NC(=O)C2(c3c(F)cc(Cl)cc3F)CC2)C1 (single isomer, unassigned) [72A*], the pIC50 ([1]; displacement of 3H-MCC950) was > 6.00, the pIC50 [2, 4] was > 8.00 and the pIC50 [3, 5] was < 5.52.

In the case of Cc1ccc(C2(C(=O)N[C@@H]3C[C@H](C)CCN(c4nnn[nH]4)C3)CC2)c(O)c1F (single isomer, unassigned) [74A*], the pIC50 ([1]; displacement of 3H-MCC950) was > 6.00, the pIC50 [2, 4] was > 8.00 and the pIC50 [3, 5] was > 6.00.

C[C@H]1CC[C@@H](NC(=O)C2(c3ccc(Cl)cc3O)CC2)CN(c2nnn[nH]2)C1 (single isomer, unassigned) [90A*] was tested, and the pIC50 ([1]; displacement of 3H-MCC950) was > 6.00, the pIC50 [2, 4] was > 8.00 and the pIC50 [3, 5] was < 5.52.

In the case of C[C@H]1C[C@@H](NC(=O)C2(c3ccc(C4CC4(F)F)cc3O)CC2)CN(c2nnn[nH]2)C1 (single isomer, unassigned) [94A*], the pIC50 ([1]; displacement of 3H-MCC950) was > 6.00, the pIC50 [2, 4] was 7.00 to 8.00 and the pIC50 [3, 5] was < 5.52.

With C[C@H]1C[C@@H](NC(=O)C2(c3c(O)cc(C4CC4)cc3OC(F)(F)F)CC2)CN(c2nnn[nH]2)C1 (single isomer, unassigned) [95A*] the pIC50 ([1]; displacement of 3H-MCC950) was > 6.00, the pIC50 [2, 4] was 7.00 to 8.00 and the pIC50 [3, 5] was < 5.52.

For C[C@@H]1CCN(c2nnn[nH]2)C[C@H](NC(=O)C2(c3cnc(Cl)cc3O)CC2)C1 (single isomer, unassigned) [99A*], the pIC50 ([1]; displacement of 3H-MCC950) was > 6.00, the pIC50 [2, 4] was 7.00 to 8.00 and the pIC50 [3, 5] was 5.52 to 5.70.

In the case of C[C@@H]1CCN(c2nnn[nH]2)C[C@H](NC(=O)C2(c3ccc(Cl)nc3O)CC2)C1 (single isomer, unassigned) [100A*], the pIC50 ([1]; displacement of 3H-MCC950) was > 6.00, the pIC50 [2, 4] was 6.30 to 7.00 and the pIC50 [3, 5] was < 5.52.

For O=C(N[C@@H]1CC[C@H]2CC[C@@H]1N2c1nnn[nH]1)C1(c2ccc(Cl)cc2O)CC1 [75C*, N-((1S,2R,5S)-8-(1H-tetrazol-5-yl)-8-azabicyclo[3.2.1]octan-2-yl)-1-(4-chloro-2-hydroxyphenyl)cyclopropane-1-carboxamide], the pIC50 ([1]; displacement of 3H-MCC950) was > 6.00, the pIC50 [2, 6] was 7.00 to 8.00 and the pIC50 [3, 5] was 5.70 to 6.00.

In the case of O=C(N[C@@H]1CC[C@H]2CC[C@@H]1N2c1nnn[nH]1)C1(c2ccc(Cl)c(F)c2O)CC1 [76C*, N-((1S,2R,5S)-8-(1H-tetrazol-5-yl)-8-azabicyclo[3.2.1]octan-2-yl)-1-(4-chloro-3-fluoro-2-hydroxyphenyl)cyclopropane-1-carboxamide], the pIC50 ([1]; displacement of 3H-MCC950) was > 6.00, the pIC50 [2, 4] was 6.30 to 7.00 and the pIC50 [3, 5] was 5.70 to 6.00.

In the case of O=C(N[C@@H]1CC[C@H]2CC[C@@H]1N2c1nnn[nH]1)C1(c2ccc(OC(F)F)cc2O)CC1 [77C*, N-((1S,2R,5S)-8-(1H-tetrazol-5-yl)-8-azabicyclo[3.2.1]octan-2-yl)-1-(4-(difluoromethoxy)-2-hydroxyphenyl)cyclopropane-1-carboxamide], the pIC50 ([1]; displacement of 3H-MCC950) was > 6.00, the pIC50 [2, 6] was 7.00 to 8.00 and the pIC50 [3, 7] was > 6.00.

With O=C(N[C@@H]1CC[C@H]2CC[C@@H]1N2c1nnn[nH]1)C1(c2ccc(OC(F)(F)F)cc2O)CC1 [78C*, N-((1S,2R,5S)-8-(1H-tetrazol-5-yl)-8-azabicyclo[3.2.1]octan-2-yl)-1-(2-hydroxy-4-(trifluoromethoxy)phenyl)cyclopropane-1-carboxamide] the pIC50 ([1]; displacement of 3H-MCC950) was > 6.00, the pIC50 [2, 6] was 7.00 to 8.00 and the pIC50 [3, 5] was 5.52 to 5.70.

With C[C@@H]1C[C@@H](NC(=O)C2(c3ccc(Cl)cc3)CC2)[C@H]2CC[C@@H]1N2c1nnn[nH]1 [80A*, 1-(4-chlorophenyl)-N-((1R,2R,4R,5S)-4-methyl-8-(1H-tetrazol-5-yl)-8-azabicyclo[3.2.1]octan-2-yl)cyclopropane-1-carboxamide] the pIC50 ([1]; displacement of 3H-MCC950) was > 6.00, the pIC50 [1] was 6.89 and the “fold increase in binding activity (SPA IC50)” value ([1]; relative to Compound 46A) was 6.6 fold. The pIC50 ([2]; PBMC IC50) was 8.00, the pIC50 [2, 6] was 7.00 to 8.00 and the “fold increase in potency as measured by PBMC IC50” value ([2]; relative to Compound 46A) was 10 fold. For the same compound, the pIC50 [3, 7] was > 6.00, the pIC50 ([3]; read-out: hWB IC50) was 6.08 and the “fold increase in potency as measured by hWB IC50” value ([3]; relative to Compound 46A) was 3 fold.

With C[C@@H]1C[C@@H](NC(=O)C2(c3ccc(C4CC4)cc3)CC2)[C@H]2CC[C@@H]1N2c1nnn[nH]1 [81A*, 1-(4-cyclopropylphenyl)-N-((1R,2R,4R,5S)-4-methy1-8-(1H-tetrazol-5-yl)-8-azabicyclo[3.2.1]octan-2-yl)cyclopropane-1-carboxamide] the pIC50 ([1]; displacement of 3H-MCC950) was > 6.00, the pIC50 [2, 6] was 7.00 to 8.00 and the pIC50 [3, 7] was > 6.00.

With C[C@@H]1C[C@@H](NC(=O)C2(c3ccc(OC(F)(F)F)cc3)CC2)[C@H]2CC[C@@H]1N2c1nnn[nH]1 [82A*, N-((1R,2R,4R,5S)-4-methy1-8-(1H-tetrazol-5-yl)-8-azabicyclo[3.2.1]octan-2-yl)-1-(4-(trifluoromethoxy)phenyl)cyclopropane-1-carboxamide] the pIC50 ([1]; displacement of 3H-MCC950) was > 6.00, the pIC50 [2, 6] was > 8.00 and the pIC50 [3, 7] was > 6.00.

In the case of C[C@@H]1C[C@@H](NC(=O)C2(c3ccc(C4CC4)c(F)c3O)CC2)[C@H]2CC[C@@H]1N2c1nnn[nH]1 [83A*, 1-(4-cyclopropy1-3-fluoro-2-hydroxyphenyl)-N-((1R,2R,4R,5S)-4-methy1-8-(1H-tetrazol-5-yl)-8-azabicyclo[3.2.1]octan-2-yl)cyclopropane-1-carboxamide], the pIC50 ([1]; displacement of 3H-MCC950) was > 6.00, the pIC50 [2, 6] was > 8.00 and the pIC50 [3, 7] was > 6.00.

In the case of C[C@@H]1C[C@@H](NC(=O)C2(c3ccc(C(F)(F)F)cc3F)CC2)[C@H]2CC[C@@H]1N2c1nnn[nH]1 [84A*, 1-(2-fluoro-4-(trifluoromethyl)phenyl)-N-((1R,2R,4R,5S)-4-methyl-8-(1H-tetrazol-5-yl)-8-azabicyclo[3.2.1]octan-2-yl)cyclopropane-1-carboxamide], the pIC50 ([1]; displacement of 3H-MCC950) was > 6.00, the pIC50 [2, 6] was > 8.00 and the pIC50 [3, 7] was > 6.00.

For C[C@@H]1C[C@@H](NC(=O)C2(c3ccc(SC(F)F)cc3)CC2)[C@H]2CC[C@@H]1N2c1nnn[nH]1 [85A*, 1-(4-((difluoromethyl)thio)phenyl)-N-((1R,2R,4R,5S)-4-methyl-8-(1H-tetrazol-5-yl)-8-azabicyclo[3.2.1]octan-2-yl)cyclopropane-1-carboxamide], the pIC50 ([1]; displacement of 3H-MCC950) was > 6.00, the pIC50 [2, 6] was > 8.00 and the pIC50 [3, 7] was > 6.00.

With C[C@@H]1C[C@@H](NC(=O)C2(c3ccc(C(F)F)cc3)CC2)[C@H]2CC[C@@H]1N2c1nnn[nH]1 [86A*, 1-(4-(difluoromethyl)phenyl)-N-((1R,2R,4R,5S)-4-methy1-8-(1H-tetrazol-5-yl)-8-azabicyclo[3.2.1]octan-2-yl)cyclopropane-1-carboxamide] the pIC50 ([1]; displacement of 3H-MCC950) was > 6.00, the pIC50 [2, 6] was 7.00 to 8.00 and the pIC50 [3, 7] was > 6.00.

With Cc1ccc(C2(C(=O)N[C@@H]3C[C@@H](C)[C@@H]4CC[C@H]3N4c3nnn[nH]3)CC2)cc1 [87A*, N-((1R,2R,4R,5S)-4-methy1-8-(1H-tetrazol-5-yl)-8-azabicyclo[3.2.1]octan-2-yl)-1-(p-tolyl)cyclopropane-1-carboxamide] the pIC50 ([1]; displacement of 3H-MCC950) was > 6.00, the pIC50 [2, 6] was 7.00 to 8.00 and the pIC50 [3, 5] was 5.70 to 6.00.

In the case of O=C(N[C@@H]1CCC[C@@H]2CC[C@H]1N2c1nnn[nH]1)C1(c2ccc(C(F)(F)F)cc2O)CC1 [88A*, N-((1R,2R,6R)-9-(1H-tetrazol-5-yl)-9-azabicyclo[4.2.1]nonan-2-yl)-1-(2-hydroxy-4-(trifluoromethyl)phenyl)cyclopropane-1-carboxamide], the pIC50 ([1]; displacement of 3H-MCC950) was > 6.00, the pIC50 [2, 6] was > 8.00 and the pIC50 [3, 7] was > 6.00.

In the case of C[C@H]1CC[C@@H](NC(=O)C2(c3ccc(C(F)(F)F)cc3O)CC2)CN(c2nnn[nH]2)C1 [89A*, 1-(2-hydroxy-4-(trifluoromethyl)phenyl)-N-((3R,6S)-6-methyl-1-(1H-tetrazol-5-yl)azepan-3-yl)cyclopropane-1-carboxamide], the pIC50 ([1]; displacement of 3H-MCC950) was > 6.00, the pIC50 [2, 4] was > 8.00 and the pIC50 [3, 5] was 5.52 to 5.70.

For C[C@H]1CC[C@H](NC(=O)C2(c3ccc(C(F)(F)F)cc3O)CC2)CN(c2nnn[nH]2)C1 [89B*, 1-(2-hydroxy-4-(trifluoromethyl)phenyl)-N-((3S,6S)-6-methyl-1-(1H-tetrazol-5-yl)azepan-3-yl)cyclopropane-1-carboxamide], the pIC50 ([1]; displacement of 3H-MCC950) was > 6.00, the pIC50 [2, 4] was 7.00 to 8.00 and the pIC50 [3, 5] was < 5.52.

With O=C(N[C@@H]1CCC[C@@H]2CC[C@H]1N2c1nnn[nH]1)C1(c2ccc(C3CC3)cc2O)CC1 [93A*, N-((1R,2R,6R)-9-(1H-tetrazol-5-yl)-9-azabicyclo[4.2.1]nonan-2-yl)-1-(4-cyclopropyl-2-hydroxyphenyl)cyclopropane-1-carboxamide] the pIC50 ([1]; displacement of 3H-MCC950) was > 6.00, the pIC50 [2, 6] was 7.00 to 8.00 and the pIC50 [3, 7] was 5.52 to 5.70.

For O=C(N[C@@H]1CCCN(c2nnn[nH]2)C1)C1(c2ccc(Cl)cc2O)CC1 [Compound 15A, (R)-N-(1-(1H-tetrazol-5-yl)piperidin-3-yl)-1-(4-chloro-2-hydroxyphenyl)cyclopropane-1-carboxamide], the pIC50 ([1]; displacement of 3H-MCC950) was 5.00 to 6.00, the pIC50 [1] was 5.74 and the “fold increase in binding activity (SPA IC50)” value ([1]; relative to Compound 10A) was > 5 fold. For the same compound, the pIC50 [2, 4] was 6.30 to 7.00, the pIC50 ([2]; read-out: PBMC IC50) was 6.70 and the “fold increase in potency as measured by PBMC IC50” value ([2]; relative to Compound 10A) was > 10 fold. For the same compound, the pIC50 [3, 5] was > 6.00, the pIC50 ([3]; read-out: hWB IC50) was 6.27 and the “fold increase in potency as measured by hWB IC50” value ([3]; relative to Compound 10A) was > 13 fold.

Source: patent US20260007684A1, “AMIDE DERIVATIVES FOR INHIBITING NLRP3 AND USES THEREOF” (Ventus Therapeutics U.S., Inc., priority 2023, published 2026)
